Patent publication US6914045B2, “Glycopeptide antibiotics” (Wyeth Holdings Corporation, priority 2001, dated 2005)
Converted amounts (≈) assume the structure as drawn.

Tests used:
Enterococcus sp. = test: in vitro antibacterial evaluation, MIC by broth dilution; format: cell-based; details: broth dilution, 18 hours at 35° C.
Outline: (§1)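 Test organisms, which included recent clinical isolates resistant to methicillin, penicillin and/or vancomycin, were inoculated at 5×10^5 CFU/mL into Muller-Hinton II […] containing antibiotic at 64-0.06 μg/mL. Minimum inhibitory concentrations were then read as the lowest level inhibiting growth.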

Staphylococcus sp. = test: as above; format: cell-based; details: broth dilution, 18 hours at 35° C.; for MIC Staphylococcus aureus (ATCC 29213): strain ATCC 29213; for MIC Staphylococcus aureus (GC 1131): strain GC 1131; for MIC Staphylococcus aureus (GC 3051): strain GC 3051; for MIC Staphylococcus aureus (GC 3053): strain GC 3053; for MIC Staphylococcus aureus (GC 4541): strain GC 4541; for MIC Staphylococcus aureus (GC 4542): strain GC 4542; for MIC Staphylococcus aureus-SMITH (GC 4543): strain GC 4543; for MIC Staphylococcus aureus (GC 4544): strain GC 4544; for MIC Staphylococcus aureus (GC 4545): strain GC 4545; for MIC Staphylococcus haemolyticus (GC 4546): strain GC 4546; for MIC Coagulase Negative Staphylococcus (GC 4547): strain GC 4547; for MIC Coagulase Negative Staphylococcus (GC 4548): strain GC 4548; for MIC Coagulase Negative Staphylococcus (GC 4549): strain GC 4549; for MIC Coagulase Negative Staphylococcus (GC 4551): strain GC 4551
Outline: as §1

Streptococcus sp. = test: as above; format: cell-based; details: broth dilution, 18 hours at 35° C.
Outline: as §1

[1] = system: Staphylococcus aureus-SMITH (GC 4543); test: acute lethal infection in mice; format: in vivo; details: acute lethal infection, female CD-1 mice, intraperitoneal challenge, intravenous 30 min. after infection, 7 day survival
Outline: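 Protocol: bacteria suspended in trypticase soy broth or hog gastric mucin injected ip into female CD-1 mice at a level killing untreated controls in 24-48 hr; compound given iv in saline or 5% dextrose 30 min post-challenge; five mice per dose; ED50 derived from pooled 7 day survival of three runs.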

[2] = anatomic pathology (histopathology of heart and kidney) in mice; format: in vivo; details: CD-1 mice, 20 mg/kg intravenously daily for 9 days, necropsy day 10, microscopic histopathology
Method: Samples of tissues from necropsied mice were formalin-fixed, paraffin-embedded, sectioned, stained with hematoxylin and eosin, and examined microscopically. Histopathologic findings were recorded. These findings were subjectively graded on a scale corresponding to slight, mild, moderate, marked and severe as compared to untreated controls.

Escherichia coli = test: in vitro antibacterial evaluation, MIC by broth dilution; format: cell-based; details: 18 hours at 35° C.

CC(C1CCCCC1)C1NC(=O)CNC(=O)C(CO)NC(=O)C(C(O)C2CNC(=N)N2C2OC(CO)C(O)C(O)C2O)NC(=O)C(C(O)C2CNC(=N)N2)NC(=O)C(Cc2ccc(OC3OC(CO)C(OC4OC5COC6(OC5C(O)C4O)C4CC5CC(C4)CC6C5)C(O)C3O)cc2)NC1=O (centres unmarked) [Example 221, Cyclo[3-cyclohexyl-2-aminobutanoyl-O-[4-O-[4,6-O-(2-adamantylidene)hexopyranosyl]hexopyranosyl]tyrosyl-3-(2-iminoimidazolidin-4-yl)seryl-3-(3-hexopyranosyl-2-iminoimidazolidin-4-yl)serylserylglycyl]]
MIC Enterococcus avium (GC 4558) (Enterococcus sp.): 2 µg/mL (≈ 1.4 µM) | MIC Enterococcus faecalis (ATCC 29212) (Enterococcus sp.): 2 µg/mL (≈ 1.4 µM) | MIC Enterococcus faecalis (GC 2242) (Enterococcus sp.): 2 µg/mL (≈ 1.4 µM) | MIC Enterococcus faecalis (GC 2691) (Enterococcus sp.): 2 µg/mL (≈ 1.4 µM) | MIC Enterococcus faecalis (GC 3059) (Enterococcus sp.): 1 µg/mL (≈ 0.698 µM) | MIC Enterococcus faecalis (GC 4552) (Enterococcus sp.): 2 µg/mL (≈ 1.4 µM) | MIC Enterococcus faecalis (GC 4553) (Enterococcus sp.): 2 µg/mL (≈ 1.4 µM) | MIC Enterococcus faecalis (GC 4554) (Enterococcus sp.): 2 µg/mL (≈ 1.4 µM) | MIC Enterococcus faecalis (GC 6189) (Enterococcus sp.): 1 µg/mL (≈ 0.698 µM) | MIC Enterococcus faecium (GC 2243) (Enterococcus sp.): 2 µg/mL (≈ 1.4 µM) | MIC Enterococcus faecium (GC 4556) (Enterococcus sp.): 2 µg/mL (≈ 1.4 µM) | MIC Enterococcus faecium (GC 4557) (Enterococcus sp.): 1 µg/mL (≈ 0.698 µM) | MIC Enterococcus faecalis (ATCC 29212) (Enterococcus sp.; inoculum 5×10^5 CFU/mL, strain ATCC 29212): 2 µg/mL (≈ 1.4 µM) | MIC Enterococcus faecalis (GC 2242) (Enterococcus sp.; inoculum 5×10^5 CFU/mL, strain GC 2242): 2 µg/mL (≈ 1.4 µM) | MIC Enterococcus faecium (GC 2243) (Enterococcus sp.; inoculum 5×10^5 CFU/mL, strain GC 2243): 2 µg/mL (≈ 1.4 µM) | MIC Enterococcus faecalis (GC 2691) (Enterococcus sp.; inoculum 5×10^5 CFU/mL, strain GC 2691): 2 µg/mL (≈ 1.4 µM) | MIC Enterococcus faecalis (GC 3059) (Enterococcus sp.; inoculum 5×10^5 CFU/mL, strain GC 3059): 1 µg/mL (≈ 0.698 µM) | MIC Enterococcus faecalis (GC 4552) (Enterococcus sp.; inoculum 5×10^5 CFU/mL, strain GC 4552): 2 µg/mL (≈ 1.4 µM) | MIC Enterococcus faecalis (GC 4553) (Enterococcus sp.; inoculum 5×10^5 CFU/mL, strain GC 4553): 2 µg/mL (≈ 1.4 µM) | MIC Enterococcus faecalis (GC 4554) (Enterococcus sp.; inoculum 5×10^5 CFU/mL, strain GC 4554): 2 µg/mL (≈ 1.4 µM) | MIC Enterococcus faecium (GC 4556) (Enterococcus sp.; inoculum 5×10^5 CFU/mL, strain GC 4556): 2 µg/mL (≈ 1.4 µM) | MIC Enterococcus faecium (GC 4557) (Enterococcus sp.; inoculum 5×10^5 CFU/mL, strain GC 4557): 1 µg/mL (≈ 0.698 µM) | MIC Enterococcus avium (GC 4558) (Enterococcus sp.; inoculum 5×10^5 CFU/mL, strain GC 4558): 2 µg/mL (≈ 1.4 µM) | MIC Enterococcus faecalis (GC 6189) (Enterococcus sp.; inoculum 5×10^5 CFU/mL, strain GC 6189): 1 µg/mL (≈ 0.698 µM) | MIC Staphylococcus aureus (ATCC 29213) (Staphylococcus sp.): 1 µg/mL (≈ 0.698 µM) | MIC Staphylococcus aureus (GC 1131) (Staphylococcus sp.): 2 µg/mL (≈ 1.4 µM) | MIC Staphylococcus aureus (GC 3051) (Staphylococcus sp.): 2 µg/mL (≈ 1.4 µM) | MIC Staphylococcus aureus (GC 3053) (Staphylococcus sp.): 1 µg/mL (≈ 0.698 µM) | MIC Staphylococcus aureus (GC 4541) (Staphylococcus sp.): 2 µg/mL (≈ 1.4 µM) | MIC Staphylococcus aureus (GC 4542) (Staphylococcus sp.): 2 µg/mL (≈ 1.4 µM) | MIC Staphylococcus aureus-SMITH (GC 4543) (Staphylococcus sp.): 2 µg/mL (≈ 1.4 µM) | MIC Staphylococcus aureus (GC 4544) (Staphylococcus sp.): 2 µg/mL (≈ 1.4 µM) | MIC Staphylococcus aureus (GC 4545) (Staphylococcus sp.): 2 µg/mL (≈ 1.4 µM) | MIC Staphylococcus haemolyticus (GC 4546) (Staphylococcus sp.): 2 µg/mL (≈ 1.4 µM) | MIC Coagulase Negative Staphylococcus (GC 4547) (Staphylococcus sp.): 2 µg/mL (≈ 1.4 µM) | MIC Coagulase Negative Staphylococcus (GC 4548) (Staphylococcus sp.): 1 µg/mL (≈ 0.698 µM) | MIC Coagulase Negative Staphylococcus (GC 4549) (Staphylococcus sp.): 1 µg/mL (≈ 0.698 µM) | MIC Coagulase Negative Staphylococcus (GC 4551) (Staphylococcus sp.): 2 µg/mL (≈ 1.4 µM) | MIC Streptococcus agalactiae (GC 4564) (Streptococcus sp.): <0.12 µg/mL | MIC Streptococcus pneumoniae (ATCC 6301) (Streptococcus sp.): <0.12 µg/mL | MIC Streptococcus pneumoniae (GC 1894) (Streptococcus sp.): <0.12 µg/mL | MIC Streptococcus pneumoniae (GC 4565) (Streptococcus sp.): <0.12 µg/mL | MIC Streptococcus pyogenes (GC 4563) (Streptococcus sp.): <0.12 µg/mL | MIC Streptococcus pneumoniae (ATCC 6301) (Streptococcus sp.; inoculum 5×10^5 CFU/mL, strain ATCC 6301): <0.12 µg/mL | MIC Streptococcus pneumoniae (GC 1894) (Streptococcus sp.; inoculum 5×10^5 CFU/mL, strain GC 1894): <0.12 µg/mL | MIC Streptococcus pyogenes (GC 4563) (Streptococcus sp.; inoculum 5×10^5 CFU/mL, strain GC 4563): <0.12 µg/mL | MIC Streptococcus agalactiae (GC 4564) (Streptococcus sp.; inoculum 5×10^5 CFU/mL, strain GC 4564): <0.12 µg/mL | MIC Streptococcus pneumoniae (GC 4565) (Streptococcus sp.; inoculum 5×10^5 CFU/mL, strain GC 4565): <0.12 µg/mL | median effective dose (ED50), Staphylococcus aureus-SMITH (GC 4543) [1]: 0.03 mg/kg | Anatomical Pathology (Day 10), Heart [2]: 0 | Anatomical Pathology (Day 10), Kidney [2]: 0 | MIC Escherichia coli (ATCC 25922) (Escherichia coli): 64 µg/mL (≈ 44.6 µM) | MIC Escherichia coli (GC 4559) (Escherichia coli): 32 µg/mL (≈ 22.3 µM) | MIC Escherichia coli (GC 4560) (Escherichia coli): 2 µg/mL (≈ 1.4 µM)

Cc1ccc(Oc2cccc(-c3nc4cc(CC5NC(=O)C(C(C)c6ccccc6)NC(=O)CNC(=O)C(CO)NC(=O)C(C(O)C6CNC(=N)N6C6OC(CO)C(O)C(O)C6O)NC(=O)C(C(O)C6CNC(=N)N6)NC5=O)ccc4o3)c2)cc1 (stereo not drawn) [Example 28, Cyclo[3-[2-[3-(4-methylphenoxy)phenyl]-1,3-benzoxazol-5-yl]alanyl-3-(2-iminoimidazolidin-4-yl)seryl-3-(3-hexopyranosyl-2-iminoimidazolidin-4-yl)serylserylglycyl-β-methylphenyl-alanyl]]
MIC Enterococcus faecalis (ATCC 29212) (Enterococcus sp.; strain ATCC 29212): 8 µg/mL (≈ 6.79 µM) | MIC Enterococcus faecalis (GC 2242) (Enterococcus sp.; strain GC 2242): 4 µg/mL (≈ 3.39 µM) | MIC Enterococcus faecium (GC 2243) (Enterococcus sp.; strain GC 2243): 8 µg/mL (≈ 6.79 µM) | MIC Enterococcus faecalis (GC 2691) (Enterococcus sp.; strain GC 2691): 8 µg/mL (≈ 6.79 µM) | MIC Enterococcus faecalis (GC 3059) (Enterococcus sp.; strain GC 3059): 8 µg/mL (≈ 6.79 µM) | MIC Enterococcus faecalis (GC 4552) (Enterococcus sp.; strain GC 4552): 8 µg/mL (≈ 6.79 µM) | MIC Enterococcus faecalis (GC 4553) (Enterococcus sp.; strain GC 4553): 4 µg/mL (≈ 3.39 µM) | MIC Enterococcus faecalis (GC 4554) (Enterococcus sp.; strain GC 4554): 8 µg/mL (≈ 6.79 µM) | MIC Enterococcus faecium (GC 4556) (Enterococcus sp.; strain GC 4556): 8 µg/mL (≈ 6.79 µM) | MIC Enterococcus faecium (GC 4557) (Enterococcus sp.; strain GC 4557): 4 µg/mL (≈ 3.39 µM) | MIC Enterococcus avium (GC 4558) (Enterococcus sp.; strain GC 4558): 4 µg/mL (≈ 3.39 µM) | MIC Enterococcus faecalis (GC 6189) (Enterococcus sp.; strain GC 6189): 8 µg/mL (≈ 6.79 µM) | MIC Staphylococcus aureus (ATCC 29213) (Staphylococcus sp.): 8 µg/mL (≈ 6.79 µM) | MIC Staphylococcus aureus (GC 1131) (Staphylococcus sp.): 8 µg/mL (≈ 6.79 µM) | MIC Staphylococcus aureus (GC 3051) (Staphylococcus sp.): 4 µg/mL (≈ 3.39 µM) | MIC Staphylococcus aureus (GC 3053) (Staphylococcus sp.): 4 µg/mL (≈ 3.39 µM) | MIC Staphylococcus aureus (GC 4541) (Staphylococcus sp.): 8 µg/mL (≈ 6.79 µM) | MIC Staphylococcus aureus (GC 4542) (Staphylococcus sp.): 8 µg/mL (≈ 6.79 µM) | MIC Staphylococcus aureus-SMITH (GC 4543) (Staphylococcus sp.): 4 µg/mL (≈ 3.39 µM) | MIC Staphylococcus aureus (GC 4544) (Staphylococcus sp.): 8 µg/mL (≈ 6.79 µM) | MIC Staphylococcus aureus (GC 4545) (Staphylococcus sp.): 4 µg/mL (≈ 3.39 µM) | MIC Staphylococcus haemolyticus (GC 4546) (Staphylococcus sp.): 4 µg/mL (≈ 3.39 µM) | MIC Coagulase Negative Staphylococcus (GC 4547) (Staphylococcus sp.): 8 µg/mL (≈ 6.79 µM) | MIC Coagulase Negative Staphylococcus (GC 4548) (Staphylococcus sp.): 4 µg/mL (≈ 3.39 µM) | MIC Coagulase Negative Staphylococcus (GC 4549) (Staphylococcus sp.): 4 µg/mL (≈ 3.39 µM) | MIC Coagulase Negative Staphylococcus (GC 4551) (Staphylococcus sp.): 4 µg/mL (≈ 3.39 µM) | MIC Coagulase Negative Staphylococcus (GC 6257) (Staphylococcus sp.; strain GC 6257): 2 µg/mL (≈ 1.7 µM) | MIC Streptococcus pneumoniae (ATCC 6301) (Streptococcus sp.; strain ATCC 6301): 4 µg/mL (≈ 3.39 µM) | MIC Streptococcus pneumoniae (GC 1894) (Streptococcus sp.; strain GC 1894): 4 µg/mL (≈ 3.39 µM) | MIC Streptococcus pyogenes (GC 4563) (Streptococcus sp.; strain GC 4563): 1 µg/mL (≈ 0.849 µM) | MIC Streptococcus agalactiae (GC 4564) (Streptococcus sp.; strain GC 4564): 4 µg/mL (≈ 3.39 µM) | MIC Streptococcus pneumoniae (GC 4565) (Streptococcus sp.; strain GC 4565): 4 µg/mL (≈ 3.39 µM) | median effective dose (ED50), Staphylococcus aureus-SMITH (GC 4543) [1]: 8 mg/kg | Anatomical Pathology (Day 10), Heart [2]: 0 | Anatomical Pathology (Day 10), Kidney [2]: 0 | MIC Escherichia coli (ATCC 25922) (Escherichia coli; strain ATCC 25922, broth dilution): 64 µg/mL (≈ 54.3 µM) | MIC Escherichia coli (GC 4559) (Escherichia coli; strain GC 4559, broth dilution): 64 µg/mL (≈ 54.3 µM) | MIC Escherichia coli (GC 4560) (Escherichia coli; strain GC 4560, broth dilution): 8 µg/mL (≈ 6.79 µM)
